Experimental data published in US12077503B2, “Substituted cyclic amides and their use as herbicides” (FMC CORPORATION, priority 2015, dated 2024).

How the values were obtained:
Format in all cases: in vivo
[1] = tested on: giant foxtail (Setaria faberii); assay: Test A preemergence; conditions: Preemergence; for Plant response rating, Foxtail, Giant: 125 g ai/ha, visual injury after approximately 10 d, 0 to 100 scale where 0 is no effect and 100 is complete control; for Foxtail, Giant plant response rating (0 to 100 scale, 0 is no effect, 100 is complete control): 500 g ai/ha, visual injury approx. 10 d
Text: (§1) Seeds of plant species selected from barnyardgrass (Echinochloa crus-galli), Kochia (Kochia scoparia), ragweed (common ragweed, Ambrosia elatior), ryegrass, Italian (Italian ryegrass, Lolium multiflorum), crabgrass, large (Digitaria sanguinalis), giant foxtail (Setaria faberii), green foxtail (Setaria viridis), morningglory (Ipomoea spp.), pigweed (Amaranthus retroflexus), velvetleaf (Abutilon theophrasti), wheat (Triticum aestivum), and corn (Zea mays) were planted into a blend of loam soil and sand and treated preemergence with a directed soil spray using test chemicals formulated in anon-phytotoxic solvent mixture which included a surfactant.
(§2) At the same time, plants selected from these crop and weed species and also blackgrass (Alopecurus myosuroides), and Galium (catchweed bedstraw, Galium aparine) were planted in pots containing the same blend of loam soil and sand and treated with postemergence applications of test chemicals formulated in the same manner. Plants ranged in height from 2 to 10 cm and were in the one- to two-leaf stage for the postemergence treatment. Treated plants and untreated controls were maintained in a greenhouse for approximately 10 d, after which time all treated plants were compared to untreated controls and visually evaluated for injury. Plant response ratings, summarized in Table A, are based on a 0 to 100 scale where 0 is no effect and 100 is complete control. A dash (-) response means no test result.

[2] = tested on: pigweed (Amaranthus retroflexus); assay: Test A preemergence; conditions: Preemergence; for Plant response rating, Pigweed: 125 g ai/ha, visual injury after approximately 10 d, 0 to 100 scale where 0 is no effect and 100 is complete control; for Pigweed plant response rating (0 to 100 scale, 0 is no effect, 100 is complete control): 500 g ai/ha, visual injury approx. 10 d
Text: as §1, §2

[3] = tested on: barnyardgrass (Echinochloa crus-galli); assay: Test A preemergence; conditions: Preemergence; for Plant response rating, Barnyardgrass: 125 g ai/ha, visual injury after approximately 10 d, 0 to 100 scale where 0 is no effect and 100 is complete control; for Barnyardgrass plant response rating (0 to 100 scale, 0 is no effect, 100 is complete control): 500 g ai/ha, visual injury approx. 10 d
Text: as §1, §2

[4] = tested on: ragweed (common ragweed, Ambrosia elatior); assay: Test A preemergence; conditions: Preemergence; for Plant response rating, Ragweed: 125 g ai/ha, visual injury after approximately 10 d, 0 to 100 scale where 0 is no effect and 100 is complete control; for Ragweed plant response rating (0 to 100 scale, 0 is no effect, 100 is complete control): 500 g ai/ha, visual injury approx. 10 d
Text: as §1, §2

Kochia (Kochia scoparia) [5] = assay: Test A preemergence; conditions: Preemergence; for Plant response rating, Kochia: 125 g ai/ha, visual injury after approximately 10 d, 0 to 100 scale where 0 is no effect and 100 is complete control; for Kochia plant response rating (0 to 100 scale, 0 is no effect, 100 is complete control): 500 g ai/ha, visual injury approx. 10 d
Text: as §1, §2

[6] = tested on: ryegrass, Italian (Italian ryegrass, Lolium multiflorum); assay: Test A preemergence; conditions: Preemergence; for Plant response rating, Ryegrass, Italian: 125 g ai/ha, visual injury after approximately 10 d, 0 to 100 scale where 0 is no effect and 100 is complete control; for Ryegrass, Italian plant response rating (0 to 100 scale, 0 is no effect, 100 is complete control): 500 g ai/ha, visual injury approx. 10 d
Text: as §1, §2

[7] = tested on: giant foxtail (Setaria faberii); assay: Test A postemergence
Text: as §1, §2

[8] = tested on: blackgrass (Alopecurus myosuroides); assay: Test A postemergence
Text: as §1, §2

[9] = tested on: pigweed (Amaranthus retroflexus); assay: Test A postemergence
Text: as §1, §2

[10] = tested on: barnyardgrass (Echinochloa crus-galli); assay: Test A postemergence
Text: as §1, §2

[11] = tested on: ragweed (common ragweed, Ambrosia elatior); assay: Test A postemergence
Text: as §1, §2

[12] = tested on: wheat (Triticum aestivum); assay: Test A postemergence
Text: as §1, §2

Kochia (Kochia scoparia) [13] = assay: Test A postemergence
Text: as §1, §2

[14] = tested on: Galium (catchweed bedstraw, Galium aparine); assay: Test A postemergence
Text: as §1, §2

corn (Zea mays) = assay: Test A postemergence
Text: as §1, §2

[15] = tested on: ryegrass, Italian (Italian ryegrass, Lolium multiflorum); assay: Test A postemergence
Text: as §1, §2

[16] = 125 g ai/ha, postemergence, visual rating after approx. 10 d, 0 to 100 scale (0 no effect, 100 complete control)
[17] = Postemergence, 500 g ai/ha, 0 to 100 scale where 0 is no effect and 100 is complete control

CCc1cccc(C2CN(C)C(=O)C2C(=O)Nc2ccc(F)cc2F)c1 (stereo not shown) [Compound 570]
0: Plant response rating, Ragweed [4] | Ragweed plant response rating (0 to 100 scale, 0 is no effect, 100 is complete control) [4] | Plant response rating, Ragweed [11, 16] | Plant response rating, Ragweed [11, 17]
30: Plant response rating, Wheat [12, 16]
50: Plant response rating, Kochia (Kochia (Kochia scoparia) [13]; [16]) | Plant response rating, Galium [14, 16] | Plant response rating, Ryegrass, Italian [15, 16]
70: Pigweed plant response rating (0 to 100 scale, 0 is no effect, 100 is complete control) [2] | Plant response rating, Kochia (Kochia (Kochia scoparia) [13]; [17])
60: Plant response rating, Kochia (Kochia (Kochia scoparia) [5]) | Plant response rating, Ryegrass, Italian [6] | Plant response rating, Blackgrass [8, 16] | Plant response rating, Wheat [12, 17] | Plant response rating, Galium [14, 17] | Plant response rating, Corn (corn (Zea mays); [16])
90: Ryegrass, Italian plant response rating (0 to 100 scale, 0 is no effect, 100 is complete control) [6] | Plant response rating, Foxtail, Giant [7, 16] | Plant response rating, Foxtail, Giant [7, 17]
20: Plant response rating, Pigweed [9, 16] | Plant response rating, Pigweed [9, 17]
100: Plant response rating, Foxtail, Giant [1] | Foxtail, Giant plant response rating (0 to 100 scale, 0 is no effect, 100 is complete control) [1] | Plant response rating, Barnyardgrass [3] | Barnyardgrass plant response rating (0 to 100 scale, 0 is no effect, 100 is complete control) [3] | Plant response rating, Barnyardgrass [10, 16] | Plant response rating, Barnyardgrass [10, 17]
80: Kochia plant response rating (0 to 100 scale, 0 is no effect, 100 is complete control) (Kochia (Kochia scoparia) [5]) | Plant response rating, Blackgrass [8, 17] | Plant response rating, Corn (corn (Zea mays); [17]) | Plant response rating, Ryegrass, Italian [15, 17]
40: Plant response rating, Pigweed [2]

CN1CC(c2cccc(C(F)(F)F)c2)C(C(=O)Nc2ccc(F)cc2F)C1=O (stereo not shown) [Compound 571]
30: Plant response rating, Pigweed [2] | Plant response rating, Pigweed [9, 17] | Plant response rating, Kochia (Kochia (Kochia scoparia) [13]; [16])
90: Plant response rating, Foxtail, Giant [1] | Plant response rating, Barnyardgrass [3] | Barnyardgrass plant response rating (0 to 100 scale, 0 is no effect, 100 is complete control) [3] | Plant response rating, Foxtail, Giant [7, 16] | Plant response rating, Foxtail, Giant [7, 17] | Plant response rating, Barnyardgrass [10, 16]
50: Plant response rating, Galium [14, 16]
100: Foxtail, Giant plant response rating (0 to 100 scale, 0 is no effect, 100 is complete control) [1] | Plant response rating, Barnyardgrass [10, 17]
60: Plant response rating, Kochia (Kochia (Kochia scoparia) [5]) | Plant response rating, Ryegrass, Italian [6] | Plant response rating, Wheat [12, 16] | Plant response rating, Kochia (Kochia (Kochia scoparia) [13]; [17]) | Plant response rating, Corn (corn (Zea mays); [16]) | Plant response rating, Ryegrass, Italian [15, 16] | Plant response rating, Ryegrass, Italian [15, 17]
70: Plant response rating, Blackgrass [8, 16] | Plant response rating, Wheat [12, 17] | Plant response rating, Galium [14, 17]
80: Pigweed plant response rating (0 to 100 scale, 0 is no effect, 100 is complete control) [2] | Kochia plant response rating (0 to 100 scale, 0 is no effect, 100 is complete control) (Kochia (Kochia scoparia) [5]) | Ryegrass, Italian plant response rating (0 to 100 scale, 0 is no effect, 100 is complete control) [6] | Plant response rating, Blackgrass [8, 17] | Plant response rating, Corn (corn (Zea mays); [17])
20: Plant response rating, Pigweed [9, 16]
0: Plant response rating, Ragweed [4] | Ragweed plant response rating (0 to 100 scale, 0 is no effect, 100 is complete control) [4] | Plant response rating, Ragweed [11, 16] | Plant response rating, Ragweed [11, 17]
